We go through 24 molecules from patent US8957078B2, “Compounds useful as inhibitors of ATR kinase” (Vertex Pharmaceuticals Incorporated, priority 2013, dated 2015).

Bounds are passed on as bounds.

Assay [1] addresses T1, ATR kinase (full-length ATR) (Homo sapiens, UniProt Q13535).
T1 construct: in the presence of 5 nM full-length ATR
In words: ATR Inhibition Assay (radioactive-phosphate incorporation). The assay is classed as biochemical. To be noted: Ki(app); 5 nM full-length ATR, 10 μM ATP, 800 μM target peptide, 25° C.

Assay [2] relates to HCT116 colorectal cancer cells. Kind of assay: Cisplatin Sensitization Assay (96 h cell viability MTS). The assay is classed as cell-based. To be noted: concentration of compound required to reduce the IC50 of Cisplatin alone by at least 3-fold; HCT116, 96 h MTS. Put shortly:
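HCT116 cells treated 96 h at 37 °C with compound and cisplatin together as a full matrix of 2-fold dilutions, each from 10 μM final top concentration. Viability by MTS, absorbance 490 nm. Value reported: compound concentration lowering cisplatin IC50 at least 3-fold.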

T1 sequence (Q13535 whole entry): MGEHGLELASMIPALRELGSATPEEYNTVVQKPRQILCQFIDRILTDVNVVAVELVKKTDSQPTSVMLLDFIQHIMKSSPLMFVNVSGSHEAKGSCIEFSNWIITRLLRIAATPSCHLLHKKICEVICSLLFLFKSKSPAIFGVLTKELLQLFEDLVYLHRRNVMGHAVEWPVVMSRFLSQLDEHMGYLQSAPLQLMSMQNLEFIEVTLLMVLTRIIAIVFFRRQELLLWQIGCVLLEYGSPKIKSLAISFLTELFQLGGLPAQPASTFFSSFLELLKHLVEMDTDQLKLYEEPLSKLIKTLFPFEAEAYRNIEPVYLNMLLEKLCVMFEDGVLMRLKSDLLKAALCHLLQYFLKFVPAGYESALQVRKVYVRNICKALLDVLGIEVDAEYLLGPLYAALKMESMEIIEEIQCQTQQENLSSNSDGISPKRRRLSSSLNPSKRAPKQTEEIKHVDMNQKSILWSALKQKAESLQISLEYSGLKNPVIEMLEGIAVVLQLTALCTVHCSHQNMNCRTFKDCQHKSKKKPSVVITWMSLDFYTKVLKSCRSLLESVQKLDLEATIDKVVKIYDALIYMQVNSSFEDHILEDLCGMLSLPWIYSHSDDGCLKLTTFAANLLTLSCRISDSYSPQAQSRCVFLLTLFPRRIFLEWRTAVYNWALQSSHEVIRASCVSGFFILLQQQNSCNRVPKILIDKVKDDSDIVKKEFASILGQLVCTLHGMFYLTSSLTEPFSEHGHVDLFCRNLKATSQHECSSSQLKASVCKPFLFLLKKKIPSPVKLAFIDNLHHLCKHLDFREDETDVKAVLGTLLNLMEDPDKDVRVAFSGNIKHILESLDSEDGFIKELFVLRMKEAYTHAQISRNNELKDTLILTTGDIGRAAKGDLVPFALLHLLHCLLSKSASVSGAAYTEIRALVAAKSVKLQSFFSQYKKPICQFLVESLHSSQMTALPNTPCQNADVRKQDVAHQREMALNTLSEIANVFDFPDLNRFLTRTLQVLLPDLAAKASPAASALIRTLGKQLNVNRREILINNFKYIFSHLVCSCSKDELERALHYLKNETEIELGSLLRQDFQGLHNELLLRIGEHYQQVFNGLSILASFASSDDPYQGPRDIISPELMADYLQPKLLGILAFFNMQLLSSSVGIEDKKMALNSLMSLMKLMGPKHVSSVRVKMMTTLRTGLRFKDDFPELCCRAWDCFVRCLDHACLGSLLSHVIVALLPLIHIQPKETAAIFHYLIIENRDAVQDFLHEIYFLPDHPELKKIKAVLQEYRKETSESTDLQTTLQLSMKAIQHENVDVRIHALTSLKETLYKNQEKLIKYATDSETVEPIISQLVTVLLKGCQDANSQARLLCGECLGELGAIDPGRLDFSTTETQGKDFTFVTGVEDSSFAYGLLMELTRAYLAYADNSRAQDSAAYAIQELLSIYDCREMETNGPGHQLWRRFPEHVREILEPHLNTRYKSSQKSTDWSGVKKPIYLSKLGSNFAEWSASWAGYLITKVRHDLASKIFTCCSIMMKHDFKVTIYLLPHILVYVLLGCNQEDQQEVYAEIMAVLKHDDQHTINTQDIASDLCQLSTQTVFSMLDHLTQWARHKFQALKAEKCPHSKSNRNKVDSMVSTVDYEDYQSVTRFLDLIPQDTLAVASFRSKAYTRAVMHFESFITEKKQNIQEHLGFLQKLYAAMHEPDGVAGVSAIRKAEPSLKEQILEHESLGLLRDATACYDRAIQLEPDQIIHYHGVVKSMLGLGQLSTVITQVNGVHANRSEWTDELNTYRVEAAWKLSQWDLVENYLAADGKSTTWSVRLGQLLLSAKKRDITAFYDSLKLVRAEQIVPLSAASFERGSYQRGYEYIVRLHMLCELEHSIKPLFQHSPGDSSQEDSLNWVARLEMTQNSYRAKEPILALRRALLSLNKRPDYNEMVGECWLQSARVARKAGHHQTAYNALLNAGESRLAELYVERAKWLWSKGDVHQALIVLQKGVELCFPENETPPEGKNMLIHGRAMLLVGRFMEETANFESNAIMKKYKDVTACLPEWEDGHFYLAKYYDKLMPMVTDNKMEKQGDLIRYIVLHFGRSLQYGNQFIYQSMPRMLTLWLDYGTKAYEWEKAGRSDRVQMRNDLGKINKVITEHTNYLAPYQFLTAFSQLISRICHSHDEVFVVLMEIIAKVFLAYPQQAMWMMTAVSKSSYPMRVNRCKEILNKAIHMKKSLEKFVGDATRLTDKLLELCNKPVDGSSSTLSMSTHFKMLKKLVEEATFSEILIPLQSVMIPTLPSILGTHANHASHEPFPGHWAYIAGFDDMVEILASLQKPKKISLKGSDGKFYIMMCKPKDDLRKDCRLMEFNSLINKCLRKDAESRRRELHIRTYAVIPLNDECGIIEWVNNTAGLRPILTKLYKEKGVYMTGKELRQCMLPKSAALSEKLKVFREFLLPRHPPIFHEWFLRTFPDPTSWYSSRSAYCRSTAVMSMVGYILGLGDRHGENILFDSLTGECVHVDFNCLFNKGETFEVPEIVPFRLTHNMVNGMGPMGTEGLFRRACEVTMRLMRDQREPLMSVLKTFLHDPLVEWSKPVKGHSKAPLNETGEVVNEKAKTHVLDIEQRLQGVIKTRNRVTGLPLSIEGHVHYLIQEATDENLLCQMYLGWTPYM

On to `Nc1nn2cc(F)cnc2c1C(=O)Nc1cnncc1N1CCCCC1` [I-B-9, 2-amino-6-fluoro-N-(5-(piperidin-1-yl)pyridazin-4-yl)pyrazolo[1,5-a]pyrimidine-3-carboxamide], for which, in assay [1], the Ki is 10 to 1000 nM. Further, the “Cisplatin Sensitization Assay” value in assay [2] was “+++ (Compounds with a Cisplatin sensitization value of <0.02 μM are marked with “+++.”)”.

Take `Cc1nsc(NC(=O)c2c(N)nn3cc(F)cnc23)c1CN1CCOCC1` [I-E-15, 2-amino-6-fluoro-N-(3-methyl-4-(morpholinomethyl)isothiazol-5-yl)pyrazolo[1,5-a]pyrimidine-3-carboxamide]: in assay [1], the Ki lay within 10 to 1000 nM. In addition, the “Cisplatin Sensitization Assay” value in assay [2] is “+++ (Compounds with a Cisplatin sensitization value of <0.02 μM are marked with “+++.”)”.

Consider `CC(C)Oc1ncncc1NC(=O)c1c(N)nn2ccc(OCCN(C)C)nc12` [I-A-15, 2-amino-5-(2-(dimethylamino)ethoxy)-N-(4-isopropoxypyrimidin-5-yl)pyrazolo[1,5-a]pyrimidine-3-carboxamide], for which, in assay [1], the Ki was 1000 to 5000 nM. Also, in assay [2], the “Cisplatin Sensitization Assay” value was “+ (Compounds with a Cisplatin sensitization value >0.2 μM but <5 μM are marked with “+.”)”.

With `Nc1nn2cc(F)cnc2c1C(=O)Nc1cncnc1O[C@H]1CN2CCC1CC2` [I-A-3, (R)-2-amino-6-fluoro-N-(4-(quinuclidin-3-yloxy)pyrimidin-5-yl)pyrazolo[1,5-a]pyrimidine-3-carboxamide], the Ki in assay [1] was in the range of 10 to 1000 nM. Also, the “Cisplatin Sensitization Assay” value in assay [2] is “++ (Compounds with a Cisplatin sensitization value >0.02 μM but <0.2 μM are marked with “++.”)”.

Regarding `Cc1nsc(NC(=O)c2c(N)nn3cc(F)cnc23)c1C1=CCN(C)CC1` [I-E-5, 2-amino-6-fluoro-N-(3-methyl-4-(1-methyl-1,2,3,6-tetrahydropyridin-4-yl)isothiazol-5-yl)pyrazolo[1,5-a]pyrimidine-3-carboxamide], in assay [1], the Ki lay within 10 to 1000 nM. Further, the “Cisplatin Sensitization Assay” value in assay [2] is “+++ (Compounds with a Cisplatin sensitization value of <0.02 μM are marked with “+++.”)”.

As to `N#CCc1cnc2c(C(=O)Nc3cncn3Cc3ccccc3)c(N)nn2c1` [I-D-1, 2-amino-N-(1-benzyl-1H-imidazol-5-yl)-6-(cyanomethyl)pyrazolo[1,5-a]pyrimidine-3-carboxamide], in assay [1], the Ki is under 10 nM. Moreover, the “Cisplatin Sensitization Assay” value in assay [2] is recorded as “+++ (Compounds with a Cisplatin sensitization value of <0.02 μM are marked with “+++.”)”.

For `Cc1ncccc1-c1cnccc1NC(=O)c1c(N)nn2cc(F)cnc12` [I-C-5, 2-amino-6-fluoro-N-(2′-methyl-[3,3′-bipyridin]-4-yl)pyrazolo[1,5-a]pyrimidine-3-carboxamide], the Ki in assay [1] was 10 to 1000 nM. Moreover, in assay [2], the “Cisplatin Sensitization Assay” value was “++ (Compounds with a Cisplatin sensitization value >0.02 μM but <0.2 μM are marked with “++.”)”.

As for `CN1CCN(c2ncncc2NC(=O)c2c(N)nn3cc(F)cnc23)CC1` [I-A-20, 2-amino-6-fluoro-N-(4-(4-methylpiperazin-1-yl)pyrimidin-5-yl)pyrazolo[1,5-a]pyrimidine-3-carboxamide], the Ki in assay [1] lay in the range of 1000 to 5000 nM. The “Cisplatin Sensitization Assay” value in assay [2] is recorded as “+ (Compounds with a Cisplatin sensitization value >0.2 μM but <5 μM are marked with “+.”)”.

Take `Cc1cc(-c2c(C)nsc2NC(=O)c2c(N)nn3cc(F)cnc23)n(C)n1` [I-E-16, 2-amino-N-(4-(1,3-dimethyl-1H-pyrazol-5-yl)-3-methylisothiazol-5-yl)-6-fluoropyrazolo[1,5-a]pyrimidine-3-carboxamide]: the Ki in assay [1] fell in the range of 10 to 1000 nM. Besides, the “Cisplatin Sensitization Assay” value in assay [2] is given as “+++ (Compounds with a Cisplatin sensitization value of <0.02 μM are marked with “+++.”)”.

With `Nc1nn2cc(F)cnc2c1C(=O)Nc1cncnc1O[C@@H]1CN2CCC1CC2` [I-A-4, (S)-2-amino-6-fluoro-N-(4-(quinuclidin-3-yloxy)pyrimidin-5-yl)pyrazolo[1,5-a]pyrimidine-3-carboxamide], in assay [1], the Ki was in the range of 10 to 1000 nM. The “Cisplatin Sensitization Assay” value in assay [2] is listed as “++ (Compounds with a Cisplatin sensitization value >0.02 μM but <0.2 μM are marked with “++.”)”.

For the molecule `Cc1ncccc1-c1cnncc1NC(=O)c1c(N)nn2cc(F)cnc12` [I-B-4, 2-amino-6-fluoro-N-(5-(2-methylpyridin-3-yl)pyridazin-4-yl)pyrazolo[1,5-a]pyrimidine-3-carboxamide], the Ki in assay [1] fell in the range of 10 to 1000 nM. The “Cisplatin Sensitization Assay” value in assay [2] is “+++ (Compounds with a Cisplatin sensitization value of <0.02 μM are marked with “+++.”)”.

For `Cc1nsc(NC(=O)c2c(N)nn3cc(F)cnc23)c1-c1ccnn1C` [I-E-8], the Ki in assay [1] lay in the range of 10 to 1000 nM. The “Cisplatin Sensitization Assay” value in assay [2] is given as “+++ (Compounds with a Cisplatin sensitization value of <0.02 μM are marked with “+++.”)”.

Regarding `CN1CCN(c2cnncc2NC(=O)c2c(N)nn3cc(F)cnc23)CC1` [I-B-1, 2-amino-6-fluoro-N-(5-(4-methylpiperazin-1-yl)pyridazin-4-yl)pyrazolo[1,5-a]pyrimidine-3-carboxamide], in assay [1], the Ki lay within 10 to 1000 nM. In assay [2], the “Cisplatin Sensitization Assay” value was “++ (Compounds with a Cisplatin sensitization value >0.02 μM but <0.2 μM are marked with “++.”)”.

In the case of `Cc1nsc(NC(=O)c2c(N)nn3cc(F)cnc23)c1-n1cccn1` [I-E-10, 2-amino-6-fluoro-N-(3-methyl-4-(1H-pyrazol-1-yl)isothiazol-5-yl)pyrazolo[1,5-a]pyrimidine-3-carboxamide], the Ki in assay [1] was under 10 nM. Further, in assay [2], the “Cisplatin Sensitization Assay” value was “+++ (Compounds with a Cisplatin sensitization value of <0.02 μM are marked with “+++.”)”.

Regarding `CN1CC[C@H](Oc2ncncc2NC(=O)c2c(N)nn3cc(F)cnc23)C1` [I-A-11, (S)-2-amino-6-fluoro-N-(4-((1-methylpyrrolidin-3-yl)oxy)pyrimidin-5-yl)pyrazolo[1,5-a]pyrimidine-3-carboxamide], the Ki in assay [1] lay within 1000 to 5000 nM. Besides, in assay [2], the “Cisplatin Sensitization Assay” value is “++ (Compounds with a Cisplatin sensitization value >0.02 μM but <0.2 μM are marked with “++.”)”.

Regarding `Nc1nn2cc(F)cnc2c1C(=O)Nc1ccncc1N1CCC(C(=O)N2CCN3CCC2CC3)CC1` [I-C-7, N-(3-(4-(1,4-diazabicyclo[3.2.2]nonane-4-carbonyl)piperidin-1-yl)pyridin-4-yl)-2-amino-6-fluoropyrazolo[1,5-a]pyrimidine-3-carboxamide], the Ki in assay [1] was 10 to 1000 nM. Besides, in assay [2], the “Cisplatin Sensitization Assay” value was “+++ (Compounds with a Cisplatin sensitization value of <0.02 μM are marked with “+++.”)”.

For `CN1CCC(Oc2ncncc2NC(=O)c2c(N)nn3cc(F)cnc23)CC1` [I-A-5, 2-amino-6-fluoro-N-(4-((1-methylpiperidin-4-yl)oxy)pyrimidin-5-yl)pyrazolo[1,5-a]pyrimidine-3-carboxamide], the Ki in assay [1] was in the range of 10 to 1000 nM. Further, the “Cisplatin Sensitization Assay” value in assay [2] is “++ (Compounds with a Cisplatin sensitization value >0.02 μM but <0.2 μM are marked with “++.”)”.

As for `Cc1nsc(NC(=O)c2c(N)nn3cc(F)cnc23)c1-c1ccncc1` [I-E-14, 2-amino-6-fluoro-N-(3-methyl-4-(pyridin-4-yl)isothiazol-5-yl)pyrazolo[1,5-a]pyrimidine-3-carboxamide], the Ki in assay [1] was 10 to 1000 nM. Further, the “Cisplatin Sensitization Assay” value in assay [2] is “+++ (Compounds with a Cisplatin sensitization value of <0.02 μM are marked with “+++.”)”.

With `Nc1nn2cc(F)cnc2c1C(=O)Nc1cnncc1N1CCC(CN2CCC(F)(F)C2)CC1` [I-B-6, 2-amino-N-(5-(4-((3,3-difluoropyrrolidin-1-yl)methyl)piperidin-1-yl)pyridazin-4-yl)-6-fluoropyrazolo[1,5-a]pyrimidine-3-carboxamide], the Ki in assay [1] lay in the range of 10 to 1000 nM. In addition, the “Cisplatin Sensitization Assay” value in assay [2] is reported as “+++ (Compounds with a Cisplatin sensitization value of <0.02 μM are marked with “+++.”)”.

As to `Nc1nn2cc(F)cnc2c1C(=O)Nc1cncn1C1CCOCC1` [I-D-4, 2-amino-6-fluoro-N-(1-(tetrahydro-2H-pyran-4-yl)-1H-imidazol-5-yl)pyrazolo[1,5-a]pyrimidine-3-carboxamide], the Ki in assay [1] was 10 to 1000 nM. Besides, the “Cisplatin Sensitization Assay” value in assay [2] is listed as “++ (Compounds with a Cisplatin sensitization value >0.02 μM but <0.2 μM are marked with “++.”)”.

Regarding `CN(C)[C@H]1CC[C@H](Oc2ncncc2NC(=O)c2c(N)nn3cc(F)cnc23)CC1` [I-A-12, 2-amino-N-(4-(((1r,4r)-4-(dimethylamino)cyclohexyl)oxy)pyrimidin-5-yl)-6-fluoropyrazolo[1,5-a]pyrimidine-3-carboxamide], the Ki in assay [1] was 10 to 1000 nM. The “Cisplatin Sensitization Assay” value in assay [2] is recorded as “++ (Compounds with a Cisplatin sensitization value >0.02 μM but <0.2 μM are marked with “++.”)”.

Regarding `CC(C)Oc1ncncc1NC(=O)c1c(N)nn2cc(F)cnc12` [I-A-14, 2-amino-6-fluoro-N-(4-isopropoxypyrimidin-5-yl)pyrazolo[1,5-a]pyrimidine-3-carboxamide], in assay [1], the Ki fell in the range of 10 to 1000 nM. In addition, the “Cisplatin Sensitization Assay” value in assay [2] is “++ (Compounds with a Cisplatin sensitization value >0.02 μM but <0.2 μM are marked with “++.”)”.

In the case of `Nc1nn2cc(F)cnc2c1C(=O)Nc1cnncc1N1CCN(C2COC2)CC1` [I-B-2, 2-amino-6-fluoro-N-(5-(4-(oxetan-3-yl)piperazin-1-yl)pyridazin-4-yl)pyrazolo[1,5-a]pyrimidine-3-carboxamide], in assay [1], the Ki lay within 10 to 1000 nM. For the same molecule, the “Cisplatin Sensitization Assay” value in assay [2] is “++ (Compounds with a Cisplatin sensitization value >0.02 μM but <0.2 μM are marked with “++.”)”.

On to `CS(=O)(=O)C1CCN(c2cnncc2NC(=O)c2c(N)nn3cc(F)cnc23)CC1` [I-B-23, 2-amino-6-fluoro-N-(5-(4-(methylsulfonyl)piperidin-1-yl)pyridazin-4-yl)pyrazolo[1,5-a]pyrimidine-3-carboxamide], for which the Ki in assay [1] is 10 to 1000 nM. Also, the “Cisplatin Sensitization Assay” value in assay [2] is listed as “++ (Compounds with a Cisplatin sensitization value >0.02 μM but <0.2 μM are marked with “++.”)”.
